The record followed here is patent US20220089609A1, “SUBSTITUTED QUINAZOLINONE DERIVATIVES AND THEIR USE AS POSITIVE ALLOSTERIC MODULATORS OF MGLUR4” (DOMAIN THERAPEUTICS, priority 2018, published 2022).

Structures are written as SMILES. Counter-ions that a name gives are not always drawn.

T1 sequence (Q14833 33-912): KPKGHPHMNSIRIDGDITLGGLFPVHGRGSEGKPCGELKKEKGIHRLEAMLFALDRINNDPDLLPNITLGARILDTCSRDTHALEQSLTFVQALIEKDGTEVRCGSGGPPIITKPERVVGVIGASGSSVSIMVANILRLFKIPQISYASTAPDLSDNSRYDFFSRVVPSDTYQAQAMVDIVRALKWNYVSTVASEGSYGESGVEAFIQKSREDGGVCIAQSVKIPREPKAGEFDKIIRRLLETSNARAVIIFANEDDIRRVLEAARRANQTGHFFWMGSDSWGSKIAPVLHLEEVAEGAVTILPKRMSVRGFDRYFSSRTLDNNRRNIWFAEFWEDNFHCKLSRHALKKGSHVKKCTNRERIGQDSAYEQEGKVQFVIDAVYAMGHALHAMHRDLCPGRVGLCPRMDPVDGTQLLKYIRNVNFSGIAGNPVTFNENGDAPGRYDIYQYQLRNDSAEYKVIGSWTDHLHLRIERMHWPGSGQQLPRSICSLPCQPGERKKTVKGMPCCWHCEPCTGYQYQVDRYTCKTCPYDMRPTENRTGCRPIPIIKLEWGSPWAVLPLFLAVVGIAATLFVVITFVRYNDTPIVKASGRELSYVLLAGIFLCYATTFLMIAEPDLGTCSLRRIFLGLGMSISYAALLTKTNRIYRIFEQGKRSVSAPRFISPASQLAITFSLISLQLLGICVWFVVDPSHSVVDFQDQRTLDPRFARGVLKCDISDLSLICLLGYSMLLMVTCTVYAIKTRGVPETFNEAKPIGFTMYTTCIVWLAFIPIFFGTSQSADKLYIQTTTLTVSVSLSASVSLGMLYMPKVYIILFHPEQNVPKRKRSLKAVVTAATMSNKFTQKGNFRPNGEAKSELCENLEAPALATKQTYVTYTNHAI

This assay concerns the target T1, human mGluR4 (hmGluR4) (Homo sapiens, UniProt Q14833).
T1 construct: expressed in transfected cells; host or cells: HEK-293 cells, transient co-transfection by electroporation
Kind of assay: Calcium assay EC50 determination, positive allosteric modulator activity on hmGluR4 transiently over-expressed in HEK-293 cells. As to conditions: PAM mode with EC20 glutamate; hmGluR4 in HEK-293 cells; intracellular calcium (Fluo4AM); read-out: mGluR4 positive allosteric modulator activity, half maximal effective concentration (EC50). It counts as cell-based. The method, then: Compounds are tested successively for their agonist and positive allosteric modulator activities on human mGluR4 (hmGluR4) transiently over-expressed in HEK-293 cells. Compounds exert agonist activity if, by themselves in absence of glutamate, they are able to activate hmGluR4; and they exert positive allosteric modulator activity if they increase the action of glutamate.
HEK-293 cells are maintained in Modified Eagle's Medium supplemented with 10% Foetal Calf Serum, 1% Penicillin/Streptomycin and 1% non-essential amino acids at 37° C./5% CO2.
Cells are co-transfected by electroporation with four DNA plasmids encoding hmGluR4, a chimeric G protein allowing redirection of the activation signal to intracellular calcium pathway, and glutamate transporters to decrease extracellular glutamate concentration so as to limit receptor desensitization. After transfection, cells are cultured for 24 h at 37° C./5% CO2.
Calcium Assay EC50 determination
Receptor activity is detected by changes in intracellular calcium measured using the fluorescent Ca^2+ sensitive dye, Fluo4AM (Molecular Probes).
On the day of the assay, culture medium is aspirated and replaced during 3 hours by medium without serum supplemented with 1% Glutamax, 1% Penicillin/Streptomycin and 1% non-essential amino acids. Then, cells are washed with freshly prepared buffer B (HBSS 1× (PAA), Hepes 20 mM, MgSO4-7H2O 1 mM, Na2CO3 3.3 mM, CaCl2-2H2O 1.3 mM, 0.1% BSA, Probenecid 2.5 mM) and loaded at 37° C. in 5% CO2 for 1.5 hours with buffer B containing 1 μM Fluo4AM, 0.1 mg/mL Pluronic Acid, 7 μg/mL Glutamate Pyruvate Transaminase and 2 mM sodium pyruvate. Afterwards cells are washed twice with buffer B. Then cells are detached using StemPro Accutase (Fisher Scientific), resuspended in buffer B and seeded in 384 well plate at a density of 30,000 cells per well. Addition of compounds and intracellular Ca^2+ measurements (excitation 485 nm, emission 525 nm) are performed by the fluorescence microplate reader FLIP^Tetra (Molecular Devices).
Agonist and positive allosteric modulator activities of compounds are consecutively evaluated on the same cell plate. Agonist activity is first tested during 10 minutes with the addition of compound alone on the cells. Then, cells are stimulated by an EC20 glutamate concentration and fluorescence is recorded for additional 3 minutes. EC20 glutamate concentration is the concentration giving 20% of the maximal glutamate response. Agonist or positive allosteric modulator activity(ies) are evaluated in comparison to basal signals evoked by buffer B or EC20 glutamate alone, respectively.
In the case of `O=c1[nH]c(-c2cc3ccsc3cn2)nc2ccc(OCCCc3ccncc3)nc12` [Compound 66, 6-(3-Pyridin-4-yl-propoxy)-2-thieno[2,3-c]pyridin-5-yl-3H-pyrido[3,2-d]pyrimidin-4-one hydrochloride], the EC50 lay within 100 to 1000 nM.

`Cc1cc(CC(=O)N2CCOCC2)cc2c(=O)[nH]c(-c3cc4sccc4cn3)nc12` [Compound 126, 8-Methyl-6-(2-morpholino-2-oxoethyl)-2-(thieno[3,2-c]pyridin-6-yl)quinazolin-4(3H)-one]: the EC50 was at most 100 nM.

Consider `CC(=O)N1CCN(CCOc2cc(C)c3nc(-c4cc5ccsc5cn4)[nH]c(=O)c3c2)CC1` [Compound 97, 6-[2-(4-acetyl-piperazin-1-yl)-ethoxy]-8-methyl-2-thieno[2,3-c]pyridin-5-yl-3H-quinazolin-4-one hydrochloride], for which the EC50 fell in the range of 100 to 1000 nM.

As for `Cc1cc(OCCCc2ccncc2)cc2c(=O)[nH]c(-c3cc4ccsc4cn3)nc12` [Compound 65, 8-Methyl-6-(3-pyridin-4-yl-propoxy)-2-thieno[2,3-c]pyridin-5-yl-3H-quinazolin-4-one hydrochloride], the EC50 was at most 100 nM.

Turning to `Cc1cc(OC[C@@H]2CCOC2)cc2c(=O)[nH]c(-c3cc4ccsc4cn3)nc12` [Compound 80-R, R-8-Methyl-6-(tetrahydro-furan-3-ylmethoxy)-2-thieno[2,3-c]pyridin-5-yl-3H-quinazolin-4-one], the EC50 is at most 100 nM.

Regarding `COC1CCN(Cc2cc(C)c3nc(-c4cc5sccc5cn4)[nH]c(=O)c3c2)CC1` [Compound 152, 6-[(4-Methoxy-1-piperidyl)methyl]-8-methyl-2-thieno[3,2-c]pyridin-6-yl-3H-quinazolin-4-one hydrochloride], the EC50 was at most 100 nM.

Turning to `Cc1cc(O[C@H](C)C2CCOCC2)cc2c(=O)[nH]c(-c3cc4ccsc4cn3)nc12` [Compound 110-R, R-8-Methyl-6-[1-(tetrahydro-pyran-4-yl)-ethoxy]-2-thieno[2,3-c]pyridin-5-yl-3H-quinazolin-4-one], the EC50 was at most 100 nM.

For the compound `O=c1[nH]c(-c2cc3ccsc3cn2)nc2ccc(OCCCc3ccncc3F)cc12` [Compound 59, 6-[3-(3-Fluoro-pyridin-4-yl)-propoxy]-2-thieno[2,3-c]pyridin-5-yl-3H-quinazolin-4-one], the EC50 fell in the range of 100 to 1000 nM.

As for `Cc1cc(OC2CCC(=O)N(C)C2)cc2c(=O)[nH]c(-c3cc4ccsc4cn3)nc12` (single isomer, unassigned) [Compound 81-E1, (R or S)-8-Methyl-6-((1-methyl-6-oxopiperidin-3-yl)oxy)-2-(thieno[2,3-c]pyridin-5-yl)quinazolin-4(3H)-one], the EC50 was at most 100 nM.

As for `Cc1cccc(-c2nc3ccc(OCCCc4ccncc4)cc3c(=O)[nH]2)n1` [Compound 12, 2-(6-methyl-2-pyridyl)-6-[3-(4-pyridyl)propoxy]-3H-quinazolin-4-one dihydrochloride], the EC50 lay within 100 to 1000 nM.

For the compound `CCc1ccnc(-c2nc3ccc(OCCCc4ccncc4)cc3c(=O)[nH]2)c1` [Compound 16, 2-(4-ethyl-2-pyridyl)-6-[3-(4-pyridyl)propoxy]-3H-quinazolin-4-one dihydrochloride], the EC50 was in the range of 1000 to 10000 nM.

Take `Cc1cc(CCN2CCOCC2)cc2c(=O)[nH]c(-c3cc(C(F)(F)F)ccn3)nc12` [Compound 117, 8-methyl-6-(2-morpholinoethyl)-2-[4-(trifluoromethyl)-2-pyridyl]-3H-quinazolin-4-one hydrochloride]: the EC50 was at most 100 nM.

For the compound `CCC(=O)N1CC[C@H](Oc2cc(C)c3nc(-c4cc5ccsc5cn4)[nH]c(=O)c3c2)C1` (stereo in doubt) [Compound 82-R, R-8-Methyl-6-(1-propionyl-pyrrolidin-3-yloxy)-2-thieno[2,3-c]pyridin-5-yl-3H-quinazolin-4-one], the EC50 was 100 to 1000 nM.

Turning to `CCC(=O)N1CC[C@H](Oc2cc(C)c3nc(-c4cc5ccsc5cn4)[nH]c(=O)c3c2)C1` [Compound 82-S, S-8-Methyl-6-(1-propionyl-pyrrolidin-3-yloxy)-2-thieno[2,3-c]pyridin-5-yl-3H-quinazolin-4-one], the EC50 was at most 100 nM.
